Data from ChEMBL document CHEMBL4507256 (2021).

What was measured:
[1] = system: Tyrosine-protein kinase ABL1 (Homo sapiens), P00519 [F317I]; details: Compound concentration 1000.0 nM
[2] = system: Tyrosine-protein kinase ABL1 (Homo sapiens), P00519 [T315I]; details: Compound concentration 1000.0 nM
[3] = molecular target: Calcium/calmodulin-dependent protein kinase type II subunit alpha (Homo sapiens) (UniProt Q9UQM7); details: Compound concentration 1000.0 nM
[4] = molecular target: Cyclin-dependent kinase-like 1 (Homo sapiens) (UniProt Q00532); details: Compound concentration 1000.0 nM
[5] = molecular target: Cyclin-dependent kinase-like 5 (Homo sapiens) (UniProt O76039); details: Compound concentration 1000.0 nM
Sequence of Cyclin-dependent kinase-like 5 (Homo sapiens) (O76039 whole entry): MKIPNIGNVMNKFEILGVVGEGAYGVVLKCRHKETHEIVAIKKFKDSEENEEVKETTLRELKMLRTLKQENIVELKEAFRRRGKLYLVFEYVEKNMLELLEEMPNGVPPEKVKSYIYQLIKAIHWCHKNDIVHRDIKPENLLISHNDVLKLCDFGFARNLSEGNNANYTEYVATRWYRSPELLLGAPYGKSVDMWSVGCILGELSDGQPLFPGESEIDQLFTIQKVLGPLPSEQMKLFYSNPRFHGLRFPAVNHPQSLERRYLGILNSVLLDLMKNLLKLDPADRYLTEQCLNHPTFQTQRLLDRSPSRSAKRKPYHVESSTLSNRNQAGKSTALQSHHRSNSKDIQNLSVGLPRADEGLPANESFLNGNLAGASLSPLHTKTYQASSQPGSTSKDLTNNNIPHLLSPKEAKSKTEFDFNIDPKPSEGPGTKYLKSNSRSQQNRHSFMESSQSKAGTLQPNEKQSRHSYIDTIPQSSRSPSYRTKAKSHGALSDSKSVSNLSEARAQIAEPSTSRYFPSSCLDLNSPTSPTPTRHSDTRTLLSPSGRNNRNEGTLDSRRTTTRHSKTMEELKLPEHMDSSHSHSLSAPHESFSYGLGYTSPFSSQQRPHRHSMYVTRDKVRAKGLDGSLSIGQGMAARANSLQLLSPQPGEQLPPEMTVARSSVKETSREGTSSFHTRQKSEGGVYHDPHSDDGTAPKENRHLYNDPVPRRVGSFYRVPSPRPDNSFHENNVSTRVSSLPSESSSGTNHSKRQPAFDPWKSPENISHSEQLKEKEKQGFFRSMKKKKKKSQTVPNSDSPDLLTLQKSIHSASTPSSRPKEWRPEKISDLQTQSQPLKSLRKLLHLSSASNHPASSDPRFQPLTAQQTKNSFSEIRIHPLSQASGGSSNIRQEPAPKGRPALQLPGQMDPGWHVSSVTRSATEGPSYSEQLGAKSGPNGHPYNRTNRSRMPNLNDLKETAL

[6] = molecular target: Dual specificity protein kinase CLK3 (Homo sapiens) (UniProt P49761); details: Compound concentration 1000.0 nM
[7] = molecular target: Eukaryotic translation initiation factor 2-alpha kinase 1 (Homo sapiens) (UniProt Q9BQI3); details: Compound concentration 1000.0 nM
[8] = molecular target: Mitogen-activated protein kinase 3 (Homo sapiens) (UniProt P27361); details: Compound concentration 1000.0 nM
Sequence of Mitogen-activated protein kinase 3 (Homo sapiens) (P27361 whole entry): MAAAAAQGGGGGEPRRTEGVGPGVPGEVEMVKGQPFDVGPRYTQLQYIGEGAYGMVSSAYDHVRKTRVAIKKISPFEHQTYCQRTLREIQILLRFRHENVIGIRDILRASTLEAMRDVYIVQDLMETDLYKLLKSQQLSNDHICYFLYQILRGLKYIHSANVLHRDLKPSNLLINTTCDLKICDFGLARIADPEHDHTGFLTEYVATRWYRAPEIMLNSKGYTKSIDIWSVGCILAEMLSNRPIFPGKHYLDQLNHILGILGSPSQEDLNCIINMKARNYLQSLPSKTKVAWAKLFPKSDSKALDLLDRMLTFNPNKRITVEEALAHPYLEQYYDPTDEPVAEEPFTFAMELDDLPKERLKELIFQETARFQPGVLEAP

[9] = molecular target: Receptor-type tyrosine-protein kinase FLT3 (Homo sapiens) (UniProt P36888); details: Compound concentration 1000.0 nM
[10] = molecular target: Homeodomain-interacting protein kinase 3 (Homo sapiens) (UniProt Q9H422); details: Compound concentration 1000.0 nM
[11] = molecular target: Interleukin-1 receptor-associated kinase 4 (Homo sapiens) (UniProt Q9NWZ3); details: Compound concentration 1000.0 nM
[12] = molecular target: Tyrosine-protein kinase JAK1 (Homo sapiens) (UniProt P23458); details: Compound concentration 1000.0 nM
[13] = molecular target: Mitogen-activated protein kinase kinase kinase 3 (Homo sapiens) (UniProt Q99759); details: Compound concentration 1000.0 nM
[14] = molecular target: Dual specificity mitogen-activated protein kinase kinase 1 (Homo sapiens) (UniProt Q02750); details: Compound concentration 1000.0 nM
Sequence of Dual specificity mitogen-activated protein kinase kinase 1 (Homo sapiens) (Q02750 whole entry): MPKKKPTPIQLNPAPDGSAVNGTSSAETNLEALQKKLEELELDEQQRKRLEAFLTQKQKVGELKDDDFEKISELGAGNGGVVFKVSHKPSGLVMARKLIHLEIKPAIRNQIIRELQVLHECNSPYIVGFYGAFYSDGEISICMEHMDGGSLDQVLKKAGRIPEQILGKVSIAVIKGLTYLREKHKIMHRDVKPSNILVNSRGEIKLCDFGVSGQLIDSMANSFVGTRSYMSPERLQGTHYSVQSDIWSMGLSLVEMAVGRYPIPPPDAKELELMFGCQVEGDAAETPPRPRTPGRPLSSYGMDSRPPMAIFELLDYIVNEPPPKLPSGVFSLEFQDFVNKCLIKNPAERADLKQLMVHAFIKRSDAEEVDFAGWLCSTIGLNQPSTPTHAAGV

[15] = molecular target: Maternal embryonic leucine zipper kinase (Homo sapiens) (UniProt Q14680); details: Compound concentration 1000.0 nM
[16] = molecular target: Hepatocyte growth factor receptor (Homo sapiens) (UniProt P08581); details: Compound concentration 1000.0 nM
[17] = system: Hepatocyte growth factor receptor (Homo sapiens), P08581 [Y1235D]; details: Compound concentration 1000.0 nM
[18] = molecular target: Dual specificity mitogen-activated protein kinase kinase 7 (Homo sapiens) (UniProt O14733); details: Compound concentration 1000.0 nM
Sequence of Dual specificity mitogen-activated protein kinase kinase 7 (Homo sapiens) (O14733 whole entry): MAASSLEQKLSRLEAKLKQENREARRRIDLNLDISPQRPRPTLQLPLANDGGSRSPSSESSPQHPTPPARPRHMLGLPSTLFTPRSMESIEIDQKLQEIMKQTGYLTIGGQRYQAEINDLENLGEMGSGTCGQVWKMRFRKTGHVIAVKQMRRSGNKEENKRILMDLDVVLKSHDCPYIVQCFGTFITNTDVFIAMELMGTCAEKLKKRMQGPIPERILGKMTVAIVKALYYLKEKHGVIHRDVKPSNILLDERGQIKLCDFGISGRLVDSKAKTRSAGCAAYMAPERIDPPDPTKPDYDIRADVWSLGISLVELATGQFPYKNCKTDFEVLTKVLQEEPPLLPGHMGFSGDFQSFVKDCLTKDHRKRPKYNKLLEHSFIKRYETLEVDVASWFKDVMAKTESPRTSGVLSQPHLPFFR

[19] = molecular target: Mitogen-activated protein kinase kinase kinase 9 (Homo sapiens) (UniProt P80192); details: Compound concentration 1000.0 nM
[20] = molecular target: Serine/threonine-protein kinase MRCK alpha (Homo sapiens) (UniProt Q5VT25); details: Compound concentration 1000.0 nM
[21] = molecular target: Myosin-IIIb (Homo sapiens) (UniProt Q8WXR4); details: Compound concentration 1000.0 nM
[22] = molecular target: Serine/threonine-protein kinase 38-like (Homo sapiens) (UniProt Q9Y2H1); details: Compound concentration 1000.0 nM
Sequence of Serine/threonine-protein kinase 38-like (Homo sapiens) (Q9Y2H1 2-464 limits assumed): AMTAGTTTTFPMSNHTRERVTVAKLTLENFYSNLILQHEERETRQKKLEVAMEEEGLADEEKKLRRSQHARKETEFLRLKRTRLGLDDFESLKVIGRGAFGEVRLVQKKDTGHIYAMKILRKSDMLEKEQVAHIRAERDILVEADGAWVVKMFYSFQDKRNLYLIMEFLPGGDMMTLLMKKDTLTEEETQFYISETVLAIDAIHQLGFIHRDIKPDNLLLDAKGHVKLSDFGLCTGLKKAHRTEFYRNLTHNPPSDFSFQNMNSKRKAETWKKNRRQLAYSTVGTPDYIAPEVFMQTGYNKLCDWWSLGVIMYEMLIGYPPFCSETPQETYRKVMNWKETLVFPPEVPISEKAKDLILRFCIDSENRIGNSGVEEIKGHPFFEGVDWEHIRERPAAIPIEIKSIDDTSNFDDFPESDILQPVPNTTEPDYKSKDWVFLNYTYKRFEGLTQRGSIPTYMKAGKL

[23] = molecular target: Calcium-dependent protein kinase 1 (Plasmodium falciparum) (UniProt P62344); details: Compound concentration 1000.0 nM
[24] = system: Phosphatidylinositol 4,5-bisphosphate 3-kinase catalytic subunit alpha isoform (Homo sapiens), P42336 [H1047L]; details: Compound concentration 1000.0 nM
[25] = molecular target: cAMP-dependent protein kinase catalytic subunit alpha (Homo sapiens) (UniProt P17612); details: Compound concentration 1000.0 nM
[26] = molecular target: Serine/threonine-protein kinase N2 (Homo sapiens) (UniProt Q16513); details: Compound concentration 1000.0 nM
[27] = molecular target: Protein kinase C theta type (Homo sapiens) (UniProt Q04759); details: Compound concentration 1000.0 nM
[28] = molecular target: Serine/threonine-protein kinase SBK1 (Homo sapiens) (UniProt Q52WX2); details: Compound concentration 1000.0 nM
Sequence of Serine/threonine-protein kinase SBK1 (Homo sapiens) (Q52WX2 whole entry): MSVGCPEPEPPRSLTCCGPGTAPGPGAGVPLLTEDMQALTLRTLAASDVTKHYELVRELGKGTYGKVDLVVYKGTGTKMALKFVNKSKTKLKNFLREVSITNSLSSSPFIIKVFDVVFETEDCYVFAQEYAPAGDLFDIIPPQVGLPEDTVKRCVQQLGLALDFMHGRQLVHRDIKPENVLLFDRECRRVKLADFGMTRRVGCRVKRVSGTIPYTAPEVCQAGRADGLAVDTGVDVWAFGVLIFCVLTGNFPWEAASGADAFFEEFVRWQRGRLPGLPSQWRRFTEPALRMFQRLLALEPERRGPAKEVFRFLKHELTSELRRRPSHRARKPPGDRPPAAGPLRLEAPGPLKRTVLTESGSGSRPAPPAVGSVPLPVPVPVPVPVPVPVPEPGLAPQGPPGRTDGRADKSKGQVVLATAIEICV

[29] = molecular target: NUAK family SNF1-like kinase 2 (Homo sapiens) (UniProt Q9H093); details: Compound concentration 1000.0 nM
[30] = molecular target: Non-receptor tyrosine-protein kinase TNK1 (Homo sapiens) (UniProt Q13470); details: Compound concentration 1000.0 nM
[31] = molecular target: Testis-specific serine/threonine-protein kinase 3 (Homo sapiens) (UniProt Q96PN8); details: Compound concentration 1000.0 nM
Sequence of Testis-specific serine/threonine-protein kinase 3 (Homo sapiens) (Q96PN8 whole entry): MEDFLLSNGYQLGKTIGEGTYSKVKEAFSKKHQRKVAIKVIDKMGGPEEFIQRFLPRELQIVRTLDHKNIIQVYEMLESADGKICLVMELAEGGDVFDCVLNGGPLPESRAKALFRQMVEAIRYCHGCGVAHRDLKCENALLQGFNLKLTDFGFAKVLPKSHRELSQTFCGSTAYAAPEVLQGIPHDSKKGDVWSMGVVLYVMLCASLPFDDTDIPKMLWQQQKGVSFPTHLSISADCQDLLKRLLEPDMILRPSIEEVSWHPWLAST

[32] = molecular target: Tyrosine-protein kinase Yes (Homo sapiens) (UniProt P07947); details: Compound concentration 1000.0 nM
Sequence of Tyrosine-protein kinase Yes (Homo sapiens) (P07947 2-543 limits assumed): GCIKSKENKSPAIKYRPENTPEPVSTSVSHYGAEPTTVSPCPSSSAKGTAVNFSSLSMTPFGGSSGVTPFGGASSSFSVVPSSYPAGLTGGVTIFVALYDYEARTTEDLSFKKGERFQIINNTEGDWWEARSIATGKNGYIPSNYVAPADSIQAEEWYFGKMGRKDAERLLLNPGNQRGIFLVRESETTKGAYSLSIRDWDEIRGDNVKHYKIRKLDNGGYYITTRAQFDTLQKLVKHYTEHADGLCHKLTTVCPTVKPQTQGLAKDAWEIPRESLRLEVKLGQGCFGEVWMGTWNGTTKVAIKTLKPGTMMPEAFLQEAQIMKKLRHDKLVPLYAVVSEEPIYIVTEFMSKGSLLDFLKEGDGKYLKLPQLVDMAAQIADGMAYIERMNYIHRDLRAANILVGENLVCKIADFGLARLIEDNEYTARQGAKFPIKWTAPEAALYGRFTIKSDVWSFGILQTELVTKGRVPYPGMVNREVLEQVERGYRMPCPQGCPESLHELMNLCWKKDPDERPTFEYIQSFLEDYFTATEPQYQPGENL

[33] = molecular target: Mitogen-activated protein kinase kinase kinase 20 (Homo sapiens) (UniProt Q9NYL2); details: Compound concentration 1000.0 nM
[34] = molecular target: 5-hydroxytryptamine receptor 1A (Homo sapiens) (UniProt P08908); details: Compound concentration 10.0 uM
Sequence of 5-hydroxytryptamine receptor 1A (Homo sapiens) (P08908 whole entry): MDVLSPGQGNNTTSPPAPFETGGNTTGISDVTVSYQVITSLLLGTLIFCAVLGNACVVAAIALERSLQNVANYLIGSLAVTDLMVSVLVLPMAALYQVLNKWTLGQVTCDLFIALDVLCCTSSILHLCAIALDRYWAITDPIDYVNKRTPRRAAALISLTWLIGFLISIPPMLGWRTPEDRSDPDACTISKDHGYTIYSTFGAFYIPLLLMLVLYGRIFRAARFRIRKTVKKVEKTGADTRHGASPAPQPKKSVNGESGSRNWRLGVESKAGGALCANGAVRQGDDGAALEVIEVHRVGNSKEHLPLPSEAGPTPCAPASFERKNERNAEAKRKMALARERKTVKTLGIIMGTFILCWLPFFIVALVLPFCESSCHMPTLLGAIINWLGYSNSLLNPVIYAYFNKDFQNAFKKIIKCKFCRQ

[35] = molecular target: 5-hydroxytryptamine receptor 2A (Homo sapiens) (UniProt P28223); details: Compound concentration 10.0 uM
Sequence of 5-hydroxytryptamine receptor 2A (Homo sapiens) (P28223 whole entry): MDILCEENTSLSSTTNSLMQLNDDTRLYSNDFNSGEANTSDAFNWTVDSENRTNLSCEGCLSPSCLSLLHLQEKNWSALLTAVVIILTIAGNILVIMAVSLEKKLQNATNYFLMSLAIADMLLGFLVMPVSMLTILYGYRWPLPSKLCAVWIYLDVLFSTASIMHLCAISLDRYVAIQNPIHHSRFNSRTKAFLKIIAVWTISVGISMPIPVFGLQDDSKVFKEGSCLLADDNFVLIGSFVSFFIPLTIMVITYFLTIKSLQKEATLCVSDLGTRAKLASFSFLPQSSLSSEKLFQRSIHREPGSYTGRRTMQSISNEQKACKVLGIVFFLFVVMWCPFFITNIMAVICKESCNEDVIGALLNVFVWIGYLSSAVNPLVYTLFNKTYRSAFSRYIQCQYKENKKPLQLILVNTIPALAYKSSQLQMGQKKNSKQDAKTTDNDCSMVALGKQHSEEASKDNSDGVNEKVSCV

[36] = molecular target: D(3) dopamine receptor (Homo sapiens) (UniProt P35462); details: Compound concentration 10.0 uM
[37] = molecular target: Alpha-1B adrenergic receptor (Homo sapiens) (UniProt P35368); details: Compound concentration 10.0 uM
[38] = molecular target: T1, Muscarinic acetylcholine receptor M1 (Homo sapiens) (UniProt P11229); details: Compound concentration 10.0 uM
T1 sequence (whole entry): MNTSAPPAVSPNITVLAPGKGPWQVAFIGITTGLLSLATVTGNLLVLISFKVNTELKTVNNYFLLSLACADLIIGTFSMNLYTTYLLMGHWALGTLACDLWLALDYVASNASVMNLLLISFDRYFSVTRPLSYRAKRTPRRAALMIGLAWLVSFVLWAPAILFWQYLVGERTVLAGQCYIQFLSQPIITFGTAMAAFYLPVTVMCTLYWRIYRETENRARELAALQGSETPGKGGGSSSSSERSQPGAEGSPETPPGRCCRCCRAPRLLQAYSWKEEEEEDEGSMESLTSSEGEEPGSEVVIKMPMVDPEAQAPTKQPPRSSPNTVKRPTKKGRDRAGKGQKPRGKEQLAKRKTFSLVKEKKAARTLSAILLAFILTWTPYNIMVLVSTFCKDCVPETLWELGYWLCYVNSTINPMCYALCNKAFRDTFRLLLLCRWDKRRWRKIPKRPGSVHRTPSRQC

[39] = molecular target: Muscarinic acetylcholine receptor M3 (Homo sapiens) (UniProt P20309); details: Compound concentration 10.0 uM

CCC(=N\O)/C(C)=C/c1ccc(F)c(C)c1 [A-226]
inactive: residual activity [1] 100% | residual activity [2] 100% | residual activity [3] 100% | residual activity [4] 91% | residual activity [5] 100% | residual activity [6] 100% | residual activity [7] 100% | residual activity [8] 100% | residual activity [9] 100% | residual activity [10] 100% | residual activity [11] 95% | residual activity [12] 100% | residual activity [13] 100% | residual activity [14] 95% | residual activity [15] 100% | residual activity [16] 100% | residual activity [17] 100% | residual activity [18] 100% | residual activity [19] 100% | residual activity [20] 100% | residual activity [21] 67% | residual activity [22] 81% | residual activity [23] 85% | residual activity [24] 100% | residual activity [25] 100% | residual activity [26] 100% | residual activity [27] 88% | residual activity [28] 100% | residual activity [29] 100% | residual activity [30] 100% | residual activity [31] 100% | residual activity [32] 100% | residual activity [33] 76% | inhibition [34] 1.12% | inhibition [35] 40.8% | inhibition [36] 8.6% | inhibition [37] 0.56% | inhibition [38] -2.46% | inhibition [39] -5.75%

CCC(=N\O)/C(C)=C/c1ccc(F)cc1 [A-079]
inactive: residual activity [1] 100% | residual activity [2] 75% | residual activity [3] 81% | residual activity [4] 81% | residual activity [5] 82% | residual activity [6] 73% | residual activity [7] 100% | residual activity [8] 69% | residual activity [9] 86% | residual activity [10] 78% | residual activity [11] 100% | residual activity [12] 96% | residual activity [13] 86% | residual activity [14] 95% | residual activity [15] 96% | residual activity [16] 88% | residual activity [17] 85% | residual activity [18] 79% | residual activity [19] 77% | residual activity [20] 100% | residual activity [21] 100% | residual activity [22] 95% | residual activity [23] 87% | residual activity [24] 100% | residual activity [25] 78% | residual activity [26] 80% | residual activity [27] 80% | residual activity [28] 100% | residual activity [29] 73% | residual activity [30] 66% | residual activity [31] 99% | residual activity [32] 87% | residual activity [33] 84% | inhibition [34] 6.81% | inhibition [35] 21.7% | inhibition [36] 14.5% | inhibition [37] 3.8% | inhibition [38] 15.2% | inhibition [39] -6.83%
